Values after ≈ are worked out from the molar mass of the structure shown.
Columns and labels:
[1] = tested on: S. aureus (52 isolates), methicillin-resistant; assay: MIC by agar dilution (MIC90); format: cell-based, Staphylococcus aureus; settings: minimum inhibitory concentration required to inhibit 90% of the isolates
From the text: The in vitro activity of the compound of this invention can be assessed by standard testing procedures such as the determination of minimum inhibitory concentration (MIC) by agar dilution as described in “Approved Standard. Methods for Dilution Antimicrobial Susceptibility Tests for Bacteria That Grow Aerobically”, 3rd. ed., published 1993 by the National Committee for Clinical Laboratory Standards, Villanova, Pa., USA.

[2] = Loss during and following terminal moist heat sterilization in container; format: physicochemical; settings: container-solution contact surface made of at least 50% polyolefin
From the text: When terminally moist heat sterilizing an IV solution, the solution is placed in the container in which (1) it will be stored and then transferred to the container from which it will ultimately be administered, or (2) stored and then ultimately administered from the same container to deliver the IV solution to the patient. […] What is essential is that the container-solution contact surface material be primarily a polyolefin; the remainder of the container can be made from polyolefin or other materials. It is preferred that the container-solution contact surface is made of from about 50 to about 100% polyolefin. It is more preferred that the container-solution contact surface is made of from about 70 to about 90% polyolefin. It is more preferred that the container-solution contact surface is made of from about 80% polyolefin. It is even more preferred that the container-solution contact surface is made of polyolefin.

Row | MIC90 S. aureus (52 isolates), methicillin-resistant [1] [µg/mL] | loss of the compound during and following terminal moist heat sterilization [2] | melting point [°C] | Structure (SMILES)
1 | 2 | significantly much less loss | 187 to 189.5 | CC(=O)NC[C@H]1CN(c2cc(F)c(N3CCS(=O)(=O)CC3)c(F)c2)C(=O)O1 [The compound of formula I, N-({(5S)-3-[4-(1,1-dioxido-4-thiomorpholinyl)-3,5-difluorophenyl]-2-oxo-1,3-oxazolidin-5-yl}methyl)acetamide]
2 | 4 (≈ 11.9 µM) | – | – | CC(=O)NC[C@H]1CN(c2ccc(N3CCOCC3)c(F)c2)C(=O)O1 [linezolid, reference compound]

Reference: US6605609B2, “Thizaine oxazolidinone” (Pharmacia & Upjohn Company, priority 2000, dated 2003)
